Key:
[1] = test system: iPSCs; assay: Cardiomyocyte differentiation of iPSCs on βLG-SMCC-VN microdroplets or EBs, flow cytometry of TNNT2+; format: cell-based, human; conditions: differentiation initiated 2 days after seeding, CDM3 medium
Protocol: Embryoid bodies Formation. Polyvinyl alcohol (PVA) was dissolved in E8 flex medium overnight to achieve a concentration of 4% PVA. This was then filtered and supplemented with 10 μM Y-27632. iPSCs were dissociated with Gentle Cell Dissociation Reagent according to manufacturer's instructions. After centrifugation, cells were counted. An aliquot of the cell suspension is then taken and centrifuged at 120×g for 3 minutes. The cell pellet was then resuspended in E8 flex with PVA and Y-27632 to achieve a cell concentration of 1×10^6 cells/mL. A petri dish was then filled with sterile water. The lid was then placed upside down and multiple 10 μL drops of the cell suspension was then placed on the lid. The lid was then placed back on the petri dish resulting in hanging droplets. After 24 hours, 30 embryoid bodies were transferred to a well of an ultra-low attachment 6-well plate filled with E8 flex medium.
Cardiomyocyte Differentiation. The iPSCs were seeded on microdroplets and tissue culture plastic controls in E8 flex medium supplemented with Y-27632, a ROCK inhibitor. After 24 hours, the medium was replaced with E8 flex medium. […]
Flow Cytometry. […] Cells were then counted and stained with the staining solution for surface markers. […] Stained cells were analysed with BD LSRII. […] The data was analysed using FlowJo software.

[2] = test system: MSCs; assay: Growth of MSCs at crosslinked βLG and BSA nanosheets (Novec 7500 interfaces); format: cell-based, human; conditions: MSCs growing for 5 days; interfaces crosslinked by sulfo-SMCC (1 mg/ml, pH 7.4), fibronectin coupled
Protocol: (§1) Human Bone Marrow Derived Mesenchymal Stem Cell culture and seeding. hBM-MSCs were purchased from PromoCell and cultured according to the supplier's recommendations.
Generation of fluorinated pinned droplets for cell culture. Thin glass slides (25×60 mm, VWR) were washed with isopropanol and dried under nitrogen, prior to plasma oxidation for 10 min (Henniker Plasma HPT-200). Slides were then placed into an anhydrous ethanol solution (9.5 mL) containing trichloro-1H,1H,2H,2H-perfluorooctyl silane (97%, Sigma-Aldrich) (500 μL) for 1 h, at room temperature. The fluorinated glass slides were cut into chips (1×1 cm) and placed into a 24 well plate (for Hoechst staining), or the glass slides were kept at their original dimensions and embedded on sticky-slide 8 wells plates (Ibidi), for imaging on a confocal microscope. After sterilization with 70% ethanol, the wells were washed (once) and then filled with 2 mL (or 600 μL for the sticky wells) of PBS (pH 7.4 for βLG, Fibrinogen and different BSA types, and pH 10.5 for poly(L-lysine), PLL). 100 μL of fluorinated oil (or 10 μL for the sticky wells), with or without fluorinated surfactant (10 μg/mL) were added to the surface of the glass slide, forming a fluorinated pinned droplet. For samples prepared in 24 well plates, 30 μL of the oil phase was removed using a micropipette, to form a flatter oil droplet. […]
Immuno-fluorescence staining.

[3] = test system: HEK293T cells; conditions: HEK293T on BSA interfaces for 22 days
Protocol: Cell seeding on emulsions. HEK293T cells, human iPSCs, Human primary keratinocytes and human MSCs were cultured according to manufacturer's instructions. For cell culture, 500 μL of corresponding medium was transferred per well in a 24 well plate treated with 25 μg/mL poly(L-lysine)-graft-polyethylene glycol (PLL-g-PEG, SuSoS). Then, 100 μL of emulsion were transferred per well. Different cell densities were used depending on the cell type. Being 10^4 cells/well for HEK293T, 4×10^4 cells/well for iPSCs, and 4×10^4 cells/well for MSCs.
Proliferation assay CCK8. Proliferation assays were performed using the Cell Counting Kit-8 (Dojindo, Kumamoto, Japan). HEK293T growing on emulsions were incubated with 100 μl CCK-8 reagent for 4 hours at 37° C. over different time-points, and optical density at 450 nm was measured.

[4] = test system: MSCs; assay: Scale-up growth of MSCs on fluorinated oil/MA-BSA bioemulsions in 250 ml flask; format: cell-based, human; conditions: 15 days, 250 ml flask under agitation
Protocol: as §1
RGD peptide coupling to biofunctionalised BSA. For the preparation of emulsions, RGD peptide coupling to functionalized BSA molecules was performed first. RGD peptide concentration was determined for each functionalized BSA formulation to enable coupling of 10 peptides per BSA molecule. Custom peptides were designed to allow reaction with functional groups in the modified BSA backbone. GCGGRGDSPG peptide was coupled to NB-BSA via […] in the presence of 1% lithium phenyl-2,4,6-trimethylbenzoylphosphinate (LAP, Sigma-Aldrich), crosslinking was performed with 405 nm blue light for 3 min. at 20 mW/cm2. CGGRGDSPG peptide was conjugated to AC-BSA and MA-BSA via […] in PBS pH 9 for at least 3 hours. The same procedure was used for FITC-RGD bearing peptides.
Conical flask bioreactor scale-up. Scale up of the MA-BSA bioemulsions system was performed on 250 ml polycarbonate Erlenmeyer flasks (Corning) with Vent caps, using a total amount of medium of 50 ml. […] Cell numbers/surface area used in bioemulsions and 2D conditions were the same (1000 cells/cm^2) and calculated assuming and average diameter of 100 μm for the bioemulsions. […]

Cc1c[nH]c(-c2cnc(NCCNc3ccc(C#N)cn3)nc2-c2ccc(Cl)cc2Cl)n1 [CHIR99021]
Percentage of TNNT2+ (whether differentiation works) ([1]; CHIR99021 6 μM, varying Wnt-C59): consistently works across conditions except for 230 μm microdroplets when 5 μM of Wnt-C59 is used | Percentage of TNNT2+ (whether differentiation works) ([1]; higher CHIR99021 concentration (above 6 μM)): only works for microdroplets and only when followed by 5 μM Wnt-C59

Bovine Serum Albumin [BSA]
cell adhesion to the interface (vinculin staining) [2]: excellent cell adhesion | proliferation after long-term culture [3]: high proliferation

MS-BSA: methacrylated BSA
coverage of bioemulsion surface by cells [4]: cells cover all the available surface of the bioemulsions

Source: patent US20250230413A1, “METHODS AND SYSTEMS FOR THE CULTURE OF CELLS AT LIQUID-LIQUID INTERFACES” (Queen Mary University of London, priority 2022, published 2025)
